Data as given in paper PMC7312435, “Direct inhibition of the TLR4/MyD88 pathway by geniposide suppresses HIF‐1α‐independent VEGF expression and angiogenesis in hepatocellular carcinoma” (British Journal of Pharmacology, 2020).

Target: T1, recombinant human TLR4 (Homo sapiens, UniProt O00206)
T1 construct: amine-coupled to CM5 chip
Assay: surface plasmon resonance (Biacore X100), steady-state fit
Format: binding
Details: PBS with 0.05% Triton X-100, pH 7.4; geniposide 0-12.8 uM; TLR4 immobilised on CM5 chip (1,300 RU)

T1 sequence (O00206 24-839): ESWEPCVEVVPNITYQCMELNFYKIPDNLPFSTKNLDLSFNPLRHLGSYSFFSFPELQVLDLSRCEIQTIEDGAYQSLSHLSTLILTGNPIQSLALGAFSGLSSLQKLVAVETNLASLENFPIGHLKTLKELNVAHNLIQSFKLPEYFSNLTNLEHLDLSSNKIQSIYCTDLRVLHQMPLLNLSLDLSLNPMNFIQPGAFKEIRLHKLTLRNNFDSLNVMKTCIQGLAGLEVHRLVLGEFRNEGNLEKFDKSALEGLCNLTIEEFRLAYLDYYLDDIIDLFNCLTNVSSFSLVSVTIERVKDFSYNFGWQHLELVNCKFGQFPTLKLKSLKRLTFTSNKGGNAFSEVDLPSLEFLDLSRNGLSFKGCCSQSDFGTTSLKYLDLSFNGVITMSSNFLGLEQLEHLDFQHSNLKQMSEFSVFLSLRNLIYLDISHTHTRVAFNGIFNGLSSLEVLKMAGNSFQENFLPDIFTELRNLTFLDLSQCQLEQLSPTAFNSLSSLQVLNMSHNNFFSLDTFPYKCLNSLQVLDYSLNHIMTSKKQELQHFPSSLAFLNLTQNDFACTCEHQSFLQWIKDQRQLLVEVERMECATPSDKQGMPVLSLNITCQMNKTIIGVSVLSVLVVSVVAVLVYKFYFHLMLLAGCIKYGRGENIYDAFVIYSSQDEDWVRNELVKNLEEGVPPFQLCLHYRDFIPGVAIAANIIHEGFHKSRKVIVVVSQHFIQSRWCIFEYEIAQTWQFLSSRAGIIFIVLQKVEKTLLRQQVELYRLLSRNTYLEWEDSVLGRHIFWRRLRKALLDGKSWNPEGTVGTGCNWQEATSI

COC(=O)C1=CO[C@@H](O[C@@H]2O[C@H](CO)[C@@H](O)[C@H](O)[C@H]2O)[C@@H]2C(CO)=CC[C@H]12 [geniposide]
K D: 6.716e^−6 M
